“Also recorded” adds a separate entry of the source. Read-outs that look alike come from different tables or passages of the source.
What was measured:
[1] = tested on: AKT S473 phosphorylation (mTORC2); test: AlphaLISA/MSD pAKT S473 in MDA-MB-468 cells; assay type: cell-based
[2] = tested on: mTORC1 signaling (p4EBP1 T37/T46); test: p4EBP1 T37/T46 in parental and FKBP12 knockout NCI-H358 cells; assay type: cell-based
p4EBP1 T37/T46 = test: FK506 competition, p4EBP1 T37/T46 in MDA-MB-468 cells; assay type: cell-based
PIK3CD = PIK3CD (Homo sapiens, UniProt O00329); test: KiNativ kinome screen in Ramos cells: PIK3CD; conditions: read-out: inhibition of PIK3CD
MCF-7 cells = test: Cell viability; assay type: cell-based; conditions: MCF-7, 72 hours
[3] = tested on: 4EBP1 T37/T46 phosphorylation (mTORC1); test: AlphaLISA/MSD p4EBP1 T37/T46 in MDA-MB-468 cells; assay type: cell-based
[4] = MCF-7 subcutaneous xenograft: body weight; conditions: MCF-7 xenograft mice; bi-steric inhibitors ip once weekly, MLN0128 po daily
[5] = Two-day glucose tolerance test; assay type: in vivo; conditions: mice, one hour after inhibitor administration
[6] = tested on: 4EBP1/2 WT and 4EBP1/2 DKO MEFs; test: Cell growth of E1A/Ras-transformed 4EBP1/2 WT and DKO MEFs; assay type: cell-based, mouse; conditions: 72 hours
kinases other than mTOR = test: KiNativ kinome screen in Ramos cells: kinases other than mTOR; conditions: 1 µM
pAKT S473 [7] = test: Immunoblot of MCF-7 cells overexpressing Myr-AKT or vector control; assay type: cell-based; conditions: 4 hours; for effect on pAKT S473 in Myr-AKT cells: MCF-7 Myr-AKT cells, BiS-31x up to 100 nM; for effect on pAKT S473 in parental cells: MCF-7 parental cells
mTORC1 over mTORC2 = test: mTORC1/2 selectivity: potencies for inhibition of 4EBP1 T37/T46; assay type: cell-based; conditions: MDA-MB-468; p4EBP1 T37/T46 vs pAKT S473 potencies
[8] = tested on: S6K T389 phosphorylation (mTORC1); test: AlphaLISA pS6K T389 in MDA-MB-468 cells; assay type: cell-based
[9] = tested on: mTOR FRB mutation (F2108L); test: Immunoblot of parental MCF-7 and MCF-7 cells harboring mTOR F2108L; assay type: cell-based; conditions: MCF-7, four hours
pAKT S473 [10] = test: Immunoblot of MCF-7 and BT474 cells: pAKT S473; assay type: cell-based; conditions: 10 nM, by 4 hours
[11] = tested on: HER3 expression and phosphorylation; test: Immunoblot of MCF-7 and BT474 cells: HER3; assay type: cell-based; conditions: 10 nM, by 24 hours
[12] = tested on: MDA-MB-468 sgGFP and sg4EBP1 cells; test: Cell viability of MDA-MB-468 sgGFP and sg4EBP1 cells; assay type: cell-based; conditions: for concentration suppressing proliferation: five days
global protein synthesis = test: Puromycin incorporation in MCF-7 cells; assay type: cell-based; conditions: MCF-7, 4 hours
[13] = tested on: pS6K T389, pAKT S473, cyclin D1; test: Immunoblot of MDA-MB-468 and MCF-7 sgGFP and sg4EBP1 cells; assay type: cell-based; conditions: 4 hours
eIF4F complex formation = test: In vitro cap-binding affinity assay, MDA-MB-468 sgGFP and sg4EBP1 cells; assay type: cell-based; conditions: 3 nM, 4 and 24 hours, MDA-MB-468 sgGFP cells
mTORC1 = conditions: cited from earlier work
AKT S473 phosphorylation = test: Immunoblot of PC3 cells, 4 or 24 hours; assay type: cell-based
FKBP12 = FKBP12 (Homo sapiens, UniProt P62942); test: TR-FRET competitive binding assay for FKBP12
[14] = mouse, in vivo

Chain of PIK3CD (O00329 whole entry): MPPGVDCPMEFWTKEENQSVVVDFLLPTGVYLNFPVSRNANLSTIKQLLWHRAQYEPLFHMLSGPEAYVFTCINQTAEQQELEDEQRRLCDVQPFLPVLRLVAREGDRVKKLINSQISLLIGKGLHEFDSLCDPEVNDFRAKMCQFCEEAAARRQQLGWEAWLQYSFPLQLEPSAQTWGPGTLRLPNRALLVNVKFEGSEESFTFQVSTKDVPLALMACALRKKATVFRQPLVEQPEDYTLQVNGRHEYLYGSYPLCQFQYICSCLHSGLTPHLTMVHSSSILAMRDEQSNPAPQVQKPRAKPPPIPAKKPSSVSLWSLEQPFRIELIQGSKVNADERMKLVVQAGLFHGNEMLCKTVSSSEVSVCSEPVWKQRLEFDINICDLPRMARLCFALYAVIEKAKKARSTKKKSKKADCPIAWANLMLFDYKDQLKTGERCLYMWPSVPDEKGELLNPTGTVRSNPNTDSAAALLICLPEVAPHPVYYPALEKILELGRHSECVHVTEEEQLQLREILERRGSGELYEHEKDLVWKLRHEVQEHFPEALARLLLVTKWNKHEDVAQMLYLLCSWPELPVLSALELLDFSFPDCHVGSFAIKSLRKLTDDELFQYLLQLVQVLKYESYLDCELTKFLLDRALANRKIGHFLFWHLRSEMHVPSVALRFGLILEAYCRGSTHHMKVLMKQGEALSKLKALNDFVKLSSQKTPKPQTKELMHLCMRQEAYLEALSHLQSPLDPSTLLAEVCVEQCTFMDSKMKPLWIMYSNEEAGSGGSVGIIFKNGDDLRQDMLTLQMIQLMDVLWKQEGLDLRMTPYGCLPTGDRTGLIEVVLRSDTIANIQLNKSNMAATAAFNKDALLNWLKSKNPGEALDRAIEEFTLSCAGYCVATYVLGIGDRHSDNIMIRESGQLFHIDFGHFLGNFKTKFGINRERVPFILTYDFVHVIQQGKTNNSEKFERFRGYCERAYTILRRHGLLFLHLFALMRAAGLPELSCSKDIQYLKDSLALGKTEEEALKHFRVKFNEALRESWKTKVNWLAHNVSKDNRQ
Chain of PIK3CD (P27986 whole entry partner): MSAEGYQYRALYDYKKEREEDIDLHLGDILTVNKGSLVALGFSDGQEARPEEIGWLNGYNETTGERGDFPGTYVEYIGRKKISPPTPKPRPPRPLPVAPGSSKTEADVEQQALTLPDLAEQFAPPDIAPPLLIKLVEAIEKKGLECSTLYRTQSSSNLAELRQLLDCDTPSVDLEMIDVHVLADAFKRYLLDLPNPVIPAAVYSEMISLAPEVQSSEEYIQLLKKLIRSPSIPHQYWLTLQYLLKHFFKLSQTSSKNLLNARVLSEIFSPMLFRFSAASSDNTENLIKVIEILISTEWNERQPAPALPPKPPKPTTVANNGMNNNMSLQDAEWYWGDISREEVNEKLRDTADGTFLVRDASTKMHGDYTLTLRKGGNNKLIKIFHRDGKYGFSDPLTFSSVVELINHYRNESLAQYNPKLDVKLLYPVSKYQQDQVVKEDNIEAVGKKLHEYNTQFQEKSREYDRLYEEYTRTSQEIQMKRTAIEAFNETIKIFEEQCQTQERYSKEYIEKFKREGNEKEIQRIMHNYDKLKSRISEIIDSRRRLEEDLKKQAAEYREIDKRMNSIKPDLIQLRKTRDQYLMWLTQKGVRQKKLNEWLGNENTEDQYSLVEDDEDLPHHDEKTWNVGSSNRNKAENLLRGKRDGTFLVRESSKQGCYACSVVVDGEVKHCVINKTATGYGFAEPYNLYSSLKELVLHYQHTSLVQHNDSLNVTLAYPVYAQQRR
Chain of FKBP12 (P62942 whole entry): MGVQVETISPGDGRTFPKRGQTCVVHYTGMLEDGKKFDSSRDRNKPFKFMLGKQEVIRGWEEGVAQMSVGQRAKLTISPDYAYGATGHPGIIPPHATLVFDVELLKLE

For `CC(C)n1nc(-c2ccc3oc(N)nc3c2)c2c(N)ncnc21` [MLN0128], the “effect on pAKT S473” value [1] was “inhibited”, the “impact of FKBP12 knockout on inhibitory activity” value [2] was “Neither FKBP12 knockout nor addition of FK506 had an impact” and the “impact of addition of FK506 on inhibitory activity” value (p4EBP1 T37/T46) was “Neither FKBP12 knockout nor addition of FK506 had an impact”. The inhibition at 1 µM (PIK3CD) was 69%, the “GI50 relative to BiS-NS and BiS-13x (less potent)” value (MCF-7 cells) was 10 fold and the “effect on p4EBP1 T37/T46” value [3] was “inhibited”. The “maximum loss in body weight” value [4] was “up to 15%”, the “return of glucose levels to baseline after the first glucose challenge” value [5] was “delayed” and the “sensitivity to cell growth inhibition in 4EBP1/2 DKO MEFs compared to WT MEFs” value [6] was “a similar pattern was observed”.

For `CC(C)n1nc(-c2cc3cc(O)ccc3[nH]2)c2c(N)ncnc21` [PP242], the “effect on pAKT S473” value [1] was “inhibited” and the “effect on p4EBP1 T37/T46” value [3] was “inhibited”.

With `CO[C@H]1C[C@@H]2CC[C@@H](C)[C@@](O)(O2)C(=O)C(=O)N2CCCC[C@H]2C(=O)O[C@H]([C@H](C)C[C@@H]2CC[C@@H](O)[C@H](OC)C2)C[C@@H](OC)[C@H](C)/C=C(\C)[C@@H](O)[C@@H](OC)/C(=N/OCc2cn(CCOCCOCCOCCOCCOCCOCCOCCOCCC(=O)NCCCCn3nc(-c4ccc5oc(N)nc5c4)c4c(N)ncnc43)nn2)[C@H](C)C[C@H](C)/C=C/C=C/C=C/1C` [RMC-4529] the “interactions with kinases other than mTOR” value (kinases other than mTOR) was “No interactions”, the “effect on pAKT S473 in Myr-AKT cells” value (pAKT S473 [7]) was “did not inhibit” and the “effect on pAKT S473 in parental cells” value (pAKT S473 [7]) was “increase”. The “selectivity for mTORC1 over mTORC2” value (mTORC1 over mTORC2) was 31 fold, the “GI50 relative to BiS-NS and BiS-13x (less potent)” value (MCF-7 cells) was 10 fold and the IC50 ([3]; read-out: 4EBP1 T37/T46 IC50) was 6.37 nM. The IC50 ([8]; read-out: S6K IC50) was 0.98 nM, the “maximum loss in body weight” value [4] was 5% and the “reduction in potency in cells with mTOR FRB mutation (F2108L)” value [9] was 10 fold.

In the case of `CO[C@@H]1C[C@@H]2CC[C@@H](C)[C@@](O)(O2)C(=O)C(=O)N2CCCC[C@@H]2C(=O)O[C@H]([C@H](C)C[C@H]2CC[C@H](OCCOCc3cn(CCOCCOCCOCCOCCOCCOCCOCCOCCC(=O)NCCCCn4nc(-c5ccc6oc(N)nc6c5)c5c(N)ncnc54)nn3)[C@H](OC)C2)CC(=O)[C@H](C)/C=C(\C)[C@H](O)[C@@H](OC)C(=O)[C@H](C)C[C@H](C)/C=C/C=C/C=C/1C` [RapaLink-1], the “effect on pAKT S473” value (pAKT S473 [10]) is reported as “abolished”, the “effect on HER3 expression and phosphorylation” value [11] is reported as “increased” and the “sensitivity of sg4EBP1 cells compared to sgGFP cells (less sensitive)” value ([12]; MDA-MB-468, five days) is reported as “three”. The concentration suppressing proliferation ([12]; MDA-MB-468 sg4EBP1 cells) was 0.3 nM, the concentration suppressing proliferation ([12]; MDA-MB-468 sgGFP cells) was 0.1 nM and the “effect on pAKT S473 in Myr-AKT cells” value (pAKT S473 [7]) was “inhibited”. The “effect on pAKT S473 in parental cells” value (pAKT S473 [7]) was “inhibited”, the “effect on global protein synthesis” value (global protein synthesis) was “suppressed” and the “effect on pS6K T389 and pAKT S473” value ([13]; control (sgGFP) and sg4EBP1 cells) was “suppressed pS6K T389 and pAKT S473 effectively and equivalently”. The “effect on cyclin D1 levels” value ([13]; sg4EBP1 cells) was “unaffected”, the “effect on cyclin D1 levels” value ([13]; sgGFP cells) was “reduced” and the “displacement of eIF4G by 4EBP1 in the cap-binding complexes” value (eIF4F complex formation) was “significant displacement”. For the same molecule, the “selectivity for mTORC1 over mTORC2” value (mTORC1 over mTORC2) was “three- to four; also recorded: approximately four”, the “effect on p4EBP1 T37/T46” value [3] was “equipotent” and the “effect on pS6K T389” value [8] was “equipotent”. For the same molecule, the “selectivity for mTORC1” value (mTORC1) was “three- to four”.

With `CO[C@H]1C[C@@H]2CC[C@@H](C)[C@@](O)(O2)C(=O)C(=O)N2CCCC[C@H]2C(=O)O[C@H]([C@H](C)C[C@@H]2CC[C@@H](O)[C@H](OC)C2)CC(=O)[C@H](C)/C=C(\C)[C@@H](O)[C@@H](OC)C(=O)[C@H](C)C[C@H](C)/C=C/C=C/C=C/1C` [Rapamycin] the “effect on pAKT S473” value [1] was “increased”, the “effect on AKT S473 phosphorylation” value (AKT S473 phosphorylation) was “significant inhibition” and the “effect on pS6K T389” value [8] was “inhibited”.

With RMC-4627 the “selectivity for mTORC1 over mTORC2” value (mTORC1 over mTORC2) was 13 fold, the “affinity for FKBP12 relative to rapamycin (lower)” value (FKBP12) was “approximately 3 fold” and the “effect on p4EBP1 T37/T46” value [3] was “equipotent”. The “effect on pS6K T389” value [8] was “equipotent” and the “maximum loss in body weight” value [14] was 10%.

Reference: article PMC9249104 (Nature chemical biology, 2021)
